Laboratory results published in US5508413A, “(+)-5-isopropyl 3-methyl 2-cyano-6 methyl-4-(3-nitrophenyl)-1, 4-dihydropyridine-3, 5-dicarboxylate” (priority 1991, dated 1996).
Values after ≈ are worked out from the molar mass of the structure shown.

Legend:
Anesthetized Dogs = assay: Measurement of Arterial Blood Pressure in Anesthetized Dogs; assay type: in vivo, Mongrel dogs; conditions: for blood pressure / ratio of blood pressure change as compared to the normal blood pressure: anesthetized dogs
Method: [A] Measurement of Arterial Blood Pressure in Anesthetized Dogs
Mongrel dogs weighing 11.8 to 19.0 kg were used. The dogs were anesthetized by intraperitoneal injection of pentobarbital sodium (35 mg/kg). The blood pressure was measured with a pressure transducer in the left femoral artery. The values of blood pressure were recorded on a polygraph. The right femoral vein was cannulated and the cumulative dose (0.01, 0.032, 0.1, 0.32, 1, 3.2, 10, 32 and 100 μg/kg) of the solution of Test Compounds dissolved in a mixture of polyethylene glycol, ethanol and water was intravenously injected in a volume of 0.2 ml/kg.
The values of blood pressure were shown in the following table with an expression of mm/Hg.
note: The values of the parentheses mean the ratio of blood pressure
change (%) in each dose as compared to the normal blood pressure.

[1] = orally administered; background statement; cited from earlier work
[2] = Solubility Test (in water at ambient temperature); assay type: physicochemical; conditions: for solubility: in water, ambient temperature
Method: [B] Solubility Test Test Method Solubility of Test Compound A and Nilvadipine in water was measured at ambient temperature.

[3] = background statement; cited from earlier work
[4] = cumulative i.v. dose 0.32 μg/kg
[5] = as compared to its optically inactive racemate, Nilvadipine

solubility [2] | solubility (in words) [2, 5] | SMILES | blood pressure (Anesthetized Dogs; [4]) | ratio of blood pressure change as compared to the normal blood pressure (Anesthetized Dogs; [4]) | blood pressure (Anesthetized Dogs; cumulative i.v. dose 1 μg/kg) | ratio of blood pressure change as compared to the normal blood pressure (Anesthetized Dogs; cumulative i.v. dose 1 μg/kg) | blood pressure (Anesthetized Dogs; cumulative i.v. dose 3.2 μg/kg) | ratio of blood pressure change as compared to the normal blood pressure (Anesthetized Dogs; cumulative i.v. dose 3.2 μg/kg) | blood pressure (Anesthetized Dogs; cumulative i.v. dose 10 μg/kg) | ratio of blood pressure change as compared to the normal blood pressure (Anesthetized Dogs; cumulative i.v. dose 10 μg/kg) | blood pressure (Anesthetized Dogs; cumulative i.v. dose 32 μg/kg) | ratio of blood pressure change as compared to the normal blood pressure (Anesthetized Dogs; cumulative i.v. dose 32 μg/kg) | blood pressure (Anesthetized Dogs; cumulative i.v. dose 100 μg/kg) | ratio of blood pressure change as compared to the normal blood pressure (Anesthetized Dogs; cumulative i.v. dose 100 μg/kg) | absorbability of said drug into a body (in words) [1] | solubility in water (in words) [3] | hypotensive and vasodilating activities (in words) (Anesthetized Dogs; [5])
0.6 µg/mL (≈ 1.56 µM) | – | COC(=O)C1=C(C#N)NC(C)=C(C(=O)OC(C)C)C1c1cccc([N+](=O)[O-])c1 (racemic) [Nilvadipine, (±)-5-isopropyl 3-methyl 2-cyano-6-methyl-4-(3-nitrophenyl)-1,4-dihydropyridine-3,5-dicarboxylate] | 104 ± 6 mm/Hg | +6 ± 1% | 103 ± 5 mm/Hg | +5 ± 1% | 100 ± 4 mm/Hg | -3 ± 2% | 90 ± 3 mm/Hg | -7 ± 5% | 83 ± 5 mm/Hg | -15 ± 6% | 65 ± 6 mm/Hg | -34 ± 6% | not so good | only slightly soluble in water | –
– | higher solubility | COC(=O)C1=C(C#N)NC(C)=C(C(=O)OC(C)C)C1c1cccc([N+](=O)[O-])c1 (single isomer, unassigned; (+)) [(+)-5-isopropyl 3-methyl 2-cyano-6-methyl-4-(3-nitrophenyl)-1,4-dihydropyridine-3,5-dicarboxylate] | – | – | – | – | – | – | – | – | – | – | – | – | – | – | much stronger and more lasting hypotensive and vasodilating activities
4.7 µg/mL (≈ 12.2 µM) | – | COC(=O)C1=C(C#N)NC(C)=C(C(=O)OC(C)C)C1c1cccc([N+](=O)[O-])c1 (single isomer, unassigned; (+)) [Test Compound A, (+)-5-isopropyl 3-methyl 2-cyano-6-methyl-4-(3-nitrophenyl)-1,4-dihydropyridine-3,5-dicarboxylate] | 117 ± 6 mm/Hg | -2 ± 1% | 114 ± 6 mm/Hg | -5 ± 1% | 101 ± 7 mm/Hg | -16 ± 2% | 74 ± 6 mm/Hg | -39 ± 2% | 64 ± 7 mm/Hg | -47 ± 4% | 58 ± 6 mm/Hg | -52 ± 3% | – | – | –
